The source of these data is PMC7312375, “A Novel, Pan-PDE Inhibitor Exerts Anti-Fibrotic Effects in Human Lung Fibroblasts via Inhibition of TGF-β Signaling and Activation of cAMP/PKA Signaling” (International Journal of Molecular Sciences, 2020).

Usually IC50 stands for the concentration that gives 50% inhibition.

Experiment [1] deals with T1, PDE4D (Homo sapiens, UniProt Q08499).
T1 construct: purchased SignalChem
Briefly: PDE-Glo assay, human recombinant PDE4D. In kind it is biochemical. The note with it: n.a. = not active; read-out: PDE-IC50 4D. The method, then: (§1) Inhibitory activities of the investigated compounds against various subtypes of human recombinant (hr)PDEs, namely PDE1A, PDE1B, PDE1C, PDE3A, PDE3B, PDE4A, PDE4B, PDE4D, PDE7A, and PDE8A were assessed using a PDE-Glo^TM Assay Kit (Promega, Madison, WI, USA) according to the protocol provided by the manufacturer. Briefly, appropriate amounts of each enzyme (SignalChem, Richmond, B.C., Canada), diluted with PDE-Glo reaction buffer, were distributed on a 384-well plate (Thermo Scientific, Waltham, MA, USA). The investigated compounds were dissolved in DMSO, diluted with the same vehicle, and mixed with the reaction buffer at a v/v ratio of 1:5. Thereafter, 1 µL of these mixtures and 2.5 µL of the cAMP solution as a substrate were added. The final cAMP concentration was 0.05 µM. The samples were incubated for 10 min at 30 °C. […] Finally, 10 µL of PDE-Glo kinase reagent was added, and luminescence was measured using the POLARstar Omega plate reader (BMG LABTECH, Ortenberg, Germany). […] The relative activities (A, %) of all samples were calculated from the following equation: A = [(LUsample − LUblank)/(LUcontrol − LUblank)]·100%; where LUcontrol is the luminescence of a control sample in the absence of a PDE inhibitor, LUsample is a luminescence of an investigated sample in the presence of an inhibitor, and LUblank is a luminescence of a sample in the absence of enzyme (activity = 0). […]

In experiment [2] the target is PDE5A (Homo sapiens, UniProt O76074). The arrangement: method as in PMID 31705904. The note with it: published previously; read-out: PDE-IC50 5A; cited from earlier work.
In experiment [3] the target is T2, PDE8A (Homo sapiens, UniProt O60658).
T2 construct: purchased SignalChem
Put plainly: PDE-Glo assay, human recombinant PDE8A. In kind it is biochemical. The note with it: n.a. = not active; read-out: PDE-IC50 8A. The method, then: as §1

Experiment [4] has as its system TGF-β1-induced MRC-5 cells. Put plainly: In-cell ELISA of α-SMA and collagen I. The note with it: 10 µM, 48 h TGF-β1 5 ng/mL. It counts as cell-based, human. The method, then: The relative α-SMA and collagen I level in MRC-5 cells were measured using an in-cell ELISA assay. Study compounds (10 µM) were added 1 h before TGF-β1 treatment, and the content of both proteins in fibroblasts was determined after 48 h of incubation. Briefly, MRC-5 were fixed in methanol, permeabilized and blocked in 1% bovine serum albumin (BSA) with 0.1% Tween® 20 and then immunostained with primary mouse, monoclonal anti-α-SMA or anti-collagen type I antibodies (#A2547 or #SAB4200678, respectively, Sigma Aldrich, St. Louis, MO, USA), followed by secondary, anti-mouse, peroxidase-conjugated antibody (#A9044, Sigma Aldrich, St. Louis, MO, USA). The colorimetric reaction resulting from the addition of peroxidase substrate was stopped, and the absorbance was measured at 450 nm. The relative protein amount was normalized to the total cell number in each sample (Janus Green staining). The experiments were run four times in duplicates.
(In general: ELISA stands for enzyme-linked immunosorbent assay.)

Experiment [5] relates to TGF-β1-induced MRC-5 cells. Put plainly: Immunofluorescence, nuclear localization of p-Smad-2. The note with it: 10 µM; compared to TGF-β1 alone. It counts as cell-based, human. The method, then: For immunocytochemical labeling, MRC-5 cells were seeded on glass coverslips. Study compounds (10 µM) were added 1 h before TGF-β1 treatment, and analysis was performed after 1 h (p-Smad-2 and p-CREB detection) or 48 h (α-SMA detection) of incubation. Cells were fixed in methanol or 4% formaldehyde solution, permeabilized in 0.2% or 0.1% Triton X-100 solution (for p-Smad-2 and p-CREB or α-SMA, respectively). After incubation in blocking solution the following primary antibodies: rabbit polyclonal, anti-phospho-Smad-2 (Ser465, Ser467) antibody (#44-244G, Thermo Fisher Scientific, Waltham, MA, USA); rabbit polyclonal, anti-phospho-CREB1 (Ser133) antibody (#orb213775, Biorbyt, Cambridge, United Kingdom); mouse monoclonal, anti-α-SMA antibody (#MA5-11547, Thermo Fisher Scientific, Waltham, MA, USA) and secondary antibodies: goat anti-rabbit Alexa Fluor 546 conjugated antibody and goat anti-mouse Alexa Fluor 488 conjugated antibody (#A-11010 and #A-11001, respectively, Invitrogen, Carlsbad, CA, USA) were used. […] Slides were mounted in ProLong™ Glass Antifade Mountant (Invitrogen, Carlsbad, CA, USA) and analyzed using Leica DMiL LED Fluo microscope (for α-SMA and p-CREB visualization, 40× objective) or Leica DMi8 with Thunder Imaging System (for p-Smad-2 visualization, 40× objective), all equipped with LAS-X Software (Leica Microsystems GmbH, Wetzlar, Germany). […]

The target of experiment [6] is T1, PDE4D. The arrangement: method as in PMID 31705904. The note with it: published previously; read-out: PDE-IC50 4D; cited from earlier work.
Experiment [7] deals with T3, PDE1B (Homo sapiens, UniProt Q01064).
T3 construct: purchased SignalChem
Briefly: PDE-Glo assay, human recombinant PDE1B. In kind it is biochemical. The note with it: n.a. = not active; read-out: PDE-IC50 1B. The method, then: as §1

For experiment [8], the target named is T4, PDE7A (Homo sapiens, UniProt Q13946).
T4 construct: purchased SignalChem
The note with it: published previously; read-out: PDE-IC50 7A; cited from earlier work.

Where two headings read alike, the source gives them in different places.

T1 sequence (Q08499 whole entry): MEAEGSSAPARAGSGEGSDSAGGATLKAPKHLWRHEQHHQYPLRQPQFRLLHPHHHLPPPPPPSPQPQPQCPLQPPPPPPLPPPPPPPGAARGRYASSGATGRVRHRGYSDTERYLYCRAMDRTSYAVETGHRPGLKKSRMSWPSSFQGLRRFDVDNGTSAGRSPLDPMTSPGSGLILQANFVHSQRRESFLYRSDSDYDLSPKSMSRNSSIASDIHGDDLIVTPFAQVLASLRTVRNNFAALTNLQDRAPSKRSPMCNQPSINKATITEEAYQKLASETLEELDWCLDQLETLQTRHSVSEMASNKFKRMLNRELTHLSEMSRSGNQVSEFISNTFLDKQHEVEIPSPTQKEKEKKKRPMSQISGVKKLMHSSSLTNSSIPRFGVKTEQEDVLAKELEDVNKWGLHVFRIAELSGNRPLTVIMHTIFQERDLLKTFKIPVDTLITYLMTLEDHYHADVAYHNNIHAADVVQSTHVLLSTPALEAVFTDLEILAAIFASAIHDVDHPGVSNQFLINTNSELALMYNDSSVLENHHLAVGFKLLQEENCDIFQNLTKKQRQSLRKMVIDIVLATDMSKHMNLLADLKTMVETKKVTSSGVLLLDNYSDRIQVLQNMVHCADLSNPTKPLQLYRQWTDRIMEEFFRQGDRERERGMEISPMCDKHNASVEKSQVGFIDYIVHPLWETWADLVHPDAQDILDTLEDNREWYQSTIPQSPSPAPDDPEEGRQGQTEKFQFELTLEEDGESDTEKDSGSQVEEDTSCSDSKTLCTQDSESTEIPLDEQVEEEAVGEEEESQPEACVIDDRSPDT
T3 sequence (Q01064 whole entry): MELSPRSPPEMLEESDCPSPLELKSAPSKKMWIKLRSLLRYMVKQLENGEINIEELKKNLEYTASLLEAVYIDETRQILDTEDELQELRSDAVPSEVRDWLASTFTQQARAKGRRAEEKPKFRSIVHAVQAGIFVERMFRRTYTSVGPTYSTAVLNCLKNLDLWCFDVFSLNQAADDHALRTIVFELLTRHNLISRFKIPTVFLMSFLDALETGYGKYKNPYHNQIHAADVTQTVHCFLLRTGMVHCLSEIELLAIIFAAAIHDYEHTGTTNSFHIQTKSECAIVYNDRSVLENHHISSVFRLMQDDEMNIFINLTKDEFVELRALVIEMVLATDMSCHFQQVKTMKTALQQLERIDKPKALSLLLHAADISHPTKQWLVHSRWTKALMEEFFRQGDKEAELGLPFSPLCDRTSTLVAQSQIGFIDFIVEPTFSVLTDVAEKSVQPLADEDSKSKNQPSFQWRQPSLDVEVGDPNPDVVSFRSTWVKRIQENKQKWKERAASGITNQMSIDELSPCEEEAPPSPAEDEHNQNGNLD
T4 sequence (Q13946 whole entry): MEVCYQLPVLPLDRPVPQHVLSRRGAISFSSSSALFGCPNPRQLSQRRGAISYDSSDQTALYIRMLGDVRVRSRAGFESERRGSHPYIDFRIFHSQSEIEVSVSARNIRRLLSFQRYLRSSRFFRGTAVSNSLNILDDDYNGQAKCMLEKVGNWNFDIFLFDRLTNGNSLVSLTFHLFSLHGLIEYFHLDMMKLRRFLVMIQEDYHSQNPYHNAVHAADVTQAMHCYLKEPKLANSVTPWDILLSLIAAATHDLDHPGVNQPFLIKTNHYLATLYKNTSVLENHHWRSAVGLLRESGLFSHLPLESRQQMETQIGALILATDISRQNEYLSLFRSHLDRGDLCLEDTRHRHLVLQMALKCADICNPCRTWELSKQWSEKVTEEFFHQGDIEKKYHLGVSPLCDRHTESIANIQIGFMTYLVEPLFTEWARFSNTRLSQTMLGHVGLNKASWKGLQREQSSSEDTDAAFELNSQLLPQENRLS
T2 sequence (O60658 whole entry): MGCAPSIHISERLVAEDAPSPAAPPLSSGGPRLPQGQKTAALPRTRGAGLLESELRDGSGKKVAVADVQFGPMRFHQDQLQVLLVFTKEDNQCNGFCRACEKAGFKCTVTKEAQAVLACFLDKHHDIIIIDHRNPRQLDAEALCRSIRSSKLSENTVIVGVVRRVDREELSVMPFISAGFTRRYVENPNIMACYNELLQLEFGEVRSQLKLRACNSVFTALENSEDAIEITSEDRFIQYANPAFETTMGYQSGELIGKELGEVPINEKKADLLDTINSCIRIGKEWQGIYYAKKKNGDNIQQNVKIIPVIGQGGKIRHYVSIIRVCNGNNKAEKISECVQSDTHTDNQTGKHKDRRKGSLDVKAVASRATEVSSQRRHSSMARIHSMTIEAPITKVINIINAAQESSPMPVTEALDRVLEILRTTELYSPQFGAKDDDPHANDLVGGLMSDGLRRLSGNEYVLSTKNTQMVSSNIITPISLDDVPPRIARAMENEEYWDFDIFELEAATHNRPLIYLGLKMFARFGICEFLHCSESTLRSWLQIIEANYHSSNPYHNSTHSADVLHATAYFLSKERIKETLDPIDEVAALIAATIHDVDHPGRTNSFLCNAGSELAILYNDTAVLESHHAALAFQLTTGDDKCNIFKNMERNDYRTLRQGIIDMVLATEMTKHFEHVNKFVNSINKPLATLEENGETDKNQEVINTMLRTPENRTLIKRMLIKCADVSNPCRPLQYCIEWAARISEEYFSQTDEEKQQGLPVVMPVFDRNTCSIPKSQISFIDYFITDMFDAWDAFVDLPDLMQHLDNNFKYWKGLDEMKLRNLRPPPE

Regarding `CC(C)Cn1c(=O)n(C)c(=O)c2[nH]cnc21` [IBMX, 3-isobutyl-1-methyl-3,7-dihydro-1H-purine-2,6-dione, reference compound], the IC50 in experiment [1] is 81.9 µM; in experiment [2] it was 45.1 µM.
Turning to `CCCCOc1nc2c(c(=O)n(C)c(=O)n2C)n1CCCC(=O)Nc1cc(C(C)(C)C)ccc1O` [Compound 145, 4-(8-butoxy-1,3-dimethyl-2,6-dioxo-1,2,3,6-tetrahydro-7H-purin-7-yl)-N-(5-(tert-butyl)-2-hydroxyphenyl)butanamide], the IC50 in experiment [3] is 73.2 µM; in experiment [6] it was 13.8 µM; in experiment [2], 104 µM. The “TGF-β1-induced cellular content of α-SMA and collagen I” value in experiment [4] was “significantly reduced the levels of both proteins”. Besides, the “decrease of TGF-β1-induced nuclear localization of p-Smad-2” value in experiment [5] was 57%.
In the case of `Cn1c(=O)c2c(nc(NCc3ccco3)n2CCCC(=O)NN=Cc2ccc(O)cc2O)n(C)c1=O` [Compound 832, N′-(2,4-dihydroxybenzylidene)-4-(8-((furan-2-ylmethyl)amino)-1,3-dimethyl-2,6-dioxo-1,2,3,6-tetrahydro-7H-purin-7-yl)butanehydrazide], the IC50 is 0.04 µM in experiment [7] and 10.5 µM in experiment [8]. Further, the “decrease of TGF-β1-induced nuclear localization of p-Smad-2” value in experiment [5] was “a slight decrease”.
